{"source": "patent US20030074682A1", "about": "“Isolation, characterization, and use of a novel teleost potassium channel” (priority 2001, published 2003)", "key": {"[1]": {"tested_on": "zebrafish larvae", "conditions": "for \"real\" arrhythmia (atrium and ventricle beating very irregularly): bathing 6 hours; for induction of 2:1 atrioventricular block (atrium beats twice while the ventricle beats once): wild-type larvae bathed in drug, terfenadine 10 μM, astemizol 1 μM, diphenhydramine 100 μM, haloperidol 2 μM, droperidol 50 μM, thioridazin 10 μM, pimozide 0.5 μM, cisapride 5 μM; for arrest of the atrial and ventricular beat: 1 hour incubation", "experimental": "About 50 zebrafish larvae were incubated for 2-7 d at 22-28° C. in petri dishes filled with 30 ml embryo medium.\nAt the day of the experiment 10 larvae were transferred to small petri dishes filled with 10 ml embryo medium, 0.5 ml MESAB solution (0.2% ethyl-m-aminobenzoate methane-sulfonate+1% Na2HPO4×2H2O, pH 7.2) and 10 μl of the respective drug (or +10 μl of a second drug) added from a 1000-fold stock solution prepared with DMSO, these three components were previously mixed in 50 ml plastic tubes (controls only receive 10 or 20 μl DMSO).\nAt certain time points the contractility of the heart and blood flow was monitored, and the heart rate was determined by counting the heart beat with the aid of a stereo-microscope.\nIn order to evaluate if zebrafish is a suitable model organism to study drug-induced QT-prolongation we investigated the effect of known QT-prolonging medicaments on the heart beat rate of zebrafish larvae. Compounds were added to the media in which the larvae were bathed and the heart beat rate was recorded by microscopy."}, "[2]": {"target": "rapidly activating delayed rectifier current K^+ current IKr (Homo sapiens, UniProt Q12809)", "sequence (Q12809 whole entry)": "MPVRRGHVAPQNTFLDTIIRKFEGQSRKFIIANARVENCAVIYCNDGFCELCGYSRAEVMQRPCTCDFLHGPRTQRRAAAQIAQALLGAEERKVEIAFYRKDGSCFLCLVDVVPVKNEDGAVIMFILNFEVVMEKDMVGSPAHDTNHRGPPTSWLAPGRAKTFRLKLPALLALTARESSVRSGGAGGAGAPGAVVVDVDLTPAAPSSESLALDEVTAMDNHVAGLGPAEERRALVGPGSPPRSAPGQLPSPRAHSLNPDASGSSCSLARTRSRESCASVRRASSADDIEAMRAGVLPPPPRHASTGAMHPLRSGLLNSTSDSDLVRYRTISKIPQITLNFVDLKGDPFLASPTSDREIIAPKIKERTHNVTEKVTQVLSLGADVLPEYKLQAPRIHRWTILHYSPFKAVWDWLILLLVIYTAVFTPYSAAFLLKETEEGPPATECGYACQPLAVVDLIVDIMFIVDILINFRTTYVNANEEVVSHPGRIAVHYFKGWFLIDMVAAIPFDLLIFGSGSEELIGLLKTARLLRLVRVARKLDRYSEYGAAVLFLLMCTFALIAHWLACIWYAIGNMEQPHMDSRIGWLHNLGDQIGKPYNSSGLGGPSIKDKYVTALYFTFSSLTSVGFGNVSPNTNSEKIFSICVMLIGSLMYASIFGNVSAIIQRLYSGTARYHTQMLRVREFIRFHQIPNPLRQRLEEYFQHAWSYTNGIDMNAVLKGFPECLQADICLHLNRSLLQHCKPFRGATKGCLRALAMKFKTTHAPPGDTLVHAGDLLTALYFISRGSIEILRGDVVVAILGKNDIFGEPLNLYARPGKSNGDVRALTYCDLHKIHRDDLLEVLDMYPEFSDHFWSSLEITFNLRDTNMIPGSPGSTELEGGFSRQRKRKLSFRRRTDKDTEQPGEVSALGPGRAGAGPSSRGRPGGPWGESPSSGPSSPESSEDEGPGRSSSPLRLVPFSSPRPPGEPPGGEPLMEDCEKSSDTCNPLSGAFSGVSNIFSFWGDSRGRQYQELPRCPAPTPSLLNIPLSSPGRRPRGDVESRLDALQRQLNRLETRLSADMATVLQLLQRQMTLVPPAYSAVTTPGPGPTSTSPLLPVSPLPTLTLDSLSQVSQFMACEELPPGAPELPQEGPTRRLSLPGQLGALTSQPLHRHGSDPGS", "conditions": "cited from earlier work"}, "[3]": {"tested_on": "ZERG", "assay": "Antisense ZERG-knockdown: PMO injected into yolk of zebrafish embryos at the 1-4-cell stage, heart function and morphology scored", "type": "in vivo", "excerpt": "In one embodiment, preferred PMOs comprise a sequence complementary to contiguous nucleotides within nucleotides 1-150 of SEQ ID NO:1; an exemplary PMO sequence is presented in SEQ ID NO:3. As further detailed in the Examples, we generated an antisense PMO corresponding to the first 24 nucleotides of the ZERG coding sequence, as presented in SEQ ID NO:3, and injected these into the yolk of zebrafish embryos at the 1-4 cell stage, according to standard protocols. […] Thus, antisense PMOs may be used to knockdown the ZERG protein, and to phenocopy the breakdance mutant, as well as QT-prolonging drug-treated larvae.\n24-mer antisense PMOs targeting the 5′ prime region of ZERG (SEQ ID NO:3; start 0-24: GACATGTCCGCGGCGCACGGGCAT) were injected at the 1-4-cell stage into the yolk of zebrafish embryos according to published methods (Nasevicius and Ekker, 2000). The PMO was obtained from AVI Biopharma (Corvallis, Oreg.) and was injected at 3, 6 and 9 ng per embryo, we used 50 embroys per concentration. The experiment was repeated five times. Heart function and morphological anaylsis of larvae were scored one to 5 d later. Controls included the injection of only the injection buffer."}, "[4]": {"conditions": "cardiac myocytes, electrophysiology"}, "[5]": {"conditions": "6 ng PMO per embryo, 2 days post-fertilization"}}, "note": "Like-named read-outs stand apart in the source and are kept apart here."}
{"compound": "COc1ccc(CCN2CCC(Nc3nc4ccccc4n3Cc3ccc(F)cc3)CC2)cc1", "note": "[astemizole]", "values": [{"measurement": "incubation time until 2:1 heart beat occurred", "setting": "[1]; 100 nM", "value": 6, "unit": "h"}, {"measurement": "\"real\" arrhythmia (atrium and ventricle beating very irregularly)", "setting": "[1]; 200 nM", "value": "arrhythmia occurred"}, {"measurement": "induction of 2:1 atrioventricular block (atrium beats twice while the ventricle beats once)", "setting": "[1]", "value": "induced a 2:1 atrioventricular block"}]}
{"compound": "COc1cc(N)c(Cl)cc1C(=O)NC1CCN(CCCOc2ccc(F)cc2)CC1OC", "note": "(stereo not shown) [cisapride]", "values": [{"measurement": "\"real\" arrhythmia (atrium and ventricle beating very irregularly)", "setting": "[1]; 10 μM", "value": "arrhythmia occurred"}, {"measurement": "arrest of the atrial and ventricular beat", "setting": "[1]; 25 μM", "value": "arrest of the atrial and ventricular beat"}, {"measurement": "induction of 2:1 atrioventricular block (atrium beats twice while the ventricle beats once)", "setting": "[1]", "value": "induced a 2:1 atrioventricular block"}, {"measurement": "block of IKr", "setting": "[2]; [4]", "value": "block"}]}
{"compound": "CN(C)CCOC(c1ccccc1)c1ccccc1", "note": "[diphenhydramine]", "values": [{"measurement": "induction of 2:1 atrioventricular block (atrium beats twice while the ventricle beats once)", "setting": "[1]", "value": "induced a 2:1 atrioventricular block"}]}
{"compound": "O=C(CCCN1CC=C(n2c(=O)[nH]c3ccccc32)CC1)c1ccc(F)cc1", "note": "[droperidol]", "values": [{"measurement": "induction of 2:1 atrioventricular block (atrium beats twice while the ventricle beats once)", "setting": "[1]", "value": "induced a 2:1 atrioventricular block"}]}
{"compound": "NC1=NCC2c3ccccc3Cc3ccccc3N12", "note": "(stereo not shown) [epinastine]", "values": [{"measurement": "effect on heart beat rate", "setting": "[1]; up to 250 μM", "value": "did not affect heart beat rate"}]}
{"compound": "O=C(CCCN1CCC(O)(c2ccc(Cl)cc2)CC1)c1ccc(F)cc1", "note": "[haloperidol]", "values": [{"measurement": "\"real\" arrhythmia (atrium and ventricle beating very irregularly)", "setting": "[1]; 10 μM", "value": "arrhythmia occurred"}, {"measurement": "induction of 2:1 atrioventricular block (atrium beats twice while the ventricle beats once)", "setting": "[1]", "value": "induced a 2:1 atrioventricular block"}, {"measurement": "block of IKr", "setting": "[2]", "value": "block"}]}
{"compound": "O=c1[nH]c2ccccc2n1C1CCN(CCCC(c2ccc(F)cc2)c2ccc(F)cc2)CC1", "note": "[pimozide]", "values": [{"measurement": "incubation time until 2:1 heart beat occurred", "setting": "[1]; 200 nM", "value": 3, "unit": "h"}, {"measurement": "arrest of the atrial and ventricular beat", "setting": "[1]; 10 μM", "value": "arrest of the atrial and ventricular beat"}, {"measurement": "induction of 2:1 atrioventricular block (atrium beats twice while the ventricle beats once)", "setting": "[1]", "value": "induced a 2:1 atrioventricular block"}, {"measurement": "block of IKr", "setting": "[2]", "value": "block"}]}
{"compound": "CC(C)NCC(O)c1ccc(NS(C)(=O)=O)cc1", "note": "(stereo not shown) [sotalol]", "values": [{"measurement": "block of IKr", "setting": "[2]; [4]", "value": "block"}]}
{"compound": "CC(C)(C)c1ccc(C(O)CCCN2CCC(C(O)(c3ccccc3)c3ccccc3)CC2)cc1", "note": "(stereo not shown) [terfenadine]", "values": [{"measurement": "induction of 2:1 atrioventricular block (atrium beats twice while the ventricle beats once)", "setting": "[1]", "value": "induced a 2:1 atrioventricular block"}]}
{"compound": "CSc1ccc2c(c1)N(CCC1CCCCN1C)c1ccccc1S2", "note": "(stereo not shown) [thioridazine]", "values": [{"measurement": "\"real\" arrhythmia (atrium and ventricle beating very irregularly)", "setting": "[1]; 10 μM", "value": "arrhythmia occurred"}, {"measurement": "induction of 2:1 atrioventricular block (atrium beats twice while the ventricle beats once)", "setting": "[1]", "value": "induced a 2:1 atrioventricular block"}]}
{"compound": "PMO: 24-mer antisense PMO targeting the 5′ region of ZERG (SEQ ID NO:3): GACATGTCCGCGGCGCACGGGCAT (antisense GACATGTCCGCGGCGCACGGGCAT; all phosphorodiamidate morpholino (PMO))", "values": [{"measurement": "larvae appearing wild-type", "setting": "[3]; 3 ng PMO per embryo", "value": "approximately 5%"}, {"measurement": "larvae showing a slight bradycardia", "setting": "[3]; 3 ng PMO per embryo", "value": "approximately 81%"}, {"measurement": "larvae showing the 2:1 phenotype", "setting": "[3]; 3 ng PMO per embryo", "value": "approximately 18%"}, {"measurement": "bradycardia and other visible abnormalities", "setting": "[3]; 6 ng PMO per embryo", "value": "All larvae showed a slight bradycardia and no other visible abnormalities"}, {"measurement": "embryos showing irregular arrhythmia, atrial beat rate strongly reduced and uncoordinated", "setting": "[3]; [5]", "value": 28, "unit": "%"}, {"measurement": "embryos showing the 2:1 heart beat", "setting": "[3]; [5]", "value": 67, "unit": "%"}, {"measurement": "larvae with a 2:1 heart beat", "setting": "[3]; 6 ng PMO per embryo, day 3", "value": 10, "unit": "%"}, {"measurement": "phenotype compared with wildtype", "setting": "[3]; 6 ng PMO per embryo, day 5", "value": "all larvae were indistinguishable from wildtype larvae"}, {"measurement": "day of death after strong necrosis beginning with day 4", "setting": "[3]; 9 ng PMO per embryo", "value": "~6", "unit": "days"}, {"measurement": "heart morphology", "setting": "[3]; 9 ng PMO per embryo", "value": "changed to a pattern known for dilative cardiomyopathy"}, {"measurement": "larvae with strongly reduced heart beat rate and contractility, both chambers beating 1:1, circulation strongly reduced or absent", "setting": "[3]; 9 ng PMO per embryo", "value": 90, "unit": "%"}, {"measurement": "edema and blood accumulation", "setting": "[3]; 9 ng PMO per embryo, day 2", "value": "heart edema and blood accumulated on the yolk sac"}, {"measurement": "PMO-injected larvae displaying the 2:1 phenotype", "setting": "[3]; injected into yolk at the 1-4 cell stage, dose not given", "value": "About 90%"}]}
